≈ marks a conversion by molar mass, not a printed value.
Experiments:
[1] = test system: Black Bean Aphid [Aphis fabae (Scop.)]; assay: Black Bean Aphid (BBA) plant spray assay, mortality after three days; type: in vivo; details: spray on infested nasturtium plants
Text: (§1) Screening was initiated at a maximal concentration level believed to be injurious to the insect population. The initial level should not be understood as representing a maximum at which a viable test for insecticidal activity can be conducted. […]
(§2) Nasturtium plants, Tropaeolum sp., approximately five centimeters (cm) high were transplanted into sandy loam soil in three-inch clay pots. Each pot was infested with 25-50 black bean aphids of mixed ages. Twenty-four hours later the pots were sprayed to the point of run-off with 50--50 acetone-water solutions of the test compounds.
(§3) Mortality rates were recorded after the infested plants had been held in the greenhouse for three days. Test concentrations ranged from 0.05% down to that at which 50% mortality occurs. Green Peach Aphid [Myzus persicae (Sulzer)], (GPA)
(§4) A less than 50% mortality rate at the initial concentration is indicated by a "greater than" sign (>). An approximately 50% mortality rate is indicated by the initial concentration rate. Other results are the dilutions at which an LD50 was achieved.

[2] = test system: Two-Spotted Mite [Tetranychus urticae (Koch)]; assay: Two-Spotted Mite (2SM) plant dip assay, mortality seven days later; type: in vivo; details: for LD50 2SM Adults: adult mites; for LD50 2SM Eggs: eggs (nymphs hatching after treatment)
Text: as §1
Pinto bean plants (Phaseolus vulgaris) approximately 10 cm high were transplanted into sandy loam soil in three-inch clay pots. The plants were thoroughly infested with two-spotted mites of mixed ages and sexes. Twenty-four hours after infestation the plants were inverted and dipped for 2-3 seconds in 50--50 acetone-water solutions of the test compounds.
Mortality ratings for both adult mites and nymphs hatching after treatment were taken seven days later. Test concentrations ranged from 0.05% down to that at which 50% mortality occurs.
as §4

[3] = test system: Tobacco Budworm [Heliothis virescens (Fabricius)]; details: leaf dip, Romaine lettuce leaves
Method: Mortality of the larvae was recorded 48 hours later. A piece of synthetic media was added to the dishes containing surviving larvae. […] Test concentrations ranged from 0.05% down to that at which approximately 50% mortality occurs.

[4] = test system: Southern House Mosquito Larvae (Culex pipiens quinquefasciatus); assay: Southern House Mosquito larvae (M) assay, mortality 48 hours after treatment; type: in vivo; details: third-instar larvae in aqueous solution, initial 1 ppm, read-out: LD50 M
Method: (§5) Screening was initiated at a maximal concentration level believed to be injurious to the insect population. The initial level should not be understood as representing a maximum at which a viable test for insecticidal activity can be conducted.
Tobacco budworms were tested in the same manner as the cabbage looper. Romaine lettuce (Latuca sativa) leaves provided the substrate. Southern House Mosquito Larvae (Culex pipiens quinquefasciatus), (M)
Ten third-instar larvae were placed in a six ounce wax paper cup containing 100 ml of an aqueous solution of the test compounds at a concentration of 1 ppm. The treated larvae were stored at 70° F. (21.5° C.) and mortality was recorded 48 hours after treatment. Two-Spotted Mite [Tetranychus urticae (Koch)], (2SM)
as §4

[5] = test system: Housefly [Musca domestica (Linn.)]; details: topical, 48 h
Method: Housefly [Musca domestica (Linn.)], (HF)--Contact Residue Assay
Test compounds were diluted in acetone and aliquots were pipetted onto the bottom of 55×15 millimeter (mm) aluminum dishes. One ml of acetone containing 0.02% peanut oil was added to each dish to insure even spreading. After all solvents had evaporated the dishes were placed in cages each containing 25 one to two day old female houseflies. Each cage contained a sugar-water cotton plug for sustanence of the flies.
Mortality rates were recorded after 48 hours. Test levels ranged from 10 μ/25 .female. houseflies down to that at which approximately 50% mortality occurs.

[6] = test system: Green Peach Aphid [Myzus persicae (Sulzer)]; assay: Green Peach Aphid (GPA) plant spray assay; type: in vivo; details: spray on infested radish plants, three days
Text: as §5, §2, §3
(§6) The insecticidal properties were tested in the same manner as for black beam aphids with the substitution of the nasturtiums by radish plants, Rhaphanus sativus. German Cockroach [Blatella germanica (Linne)], (GR)--Direct Spray
as §4

[7] = test system: Cabbage Looper [Trichoplusia ni (Hubner)]; assay: Cabbage Looper (CL) leaf dip assay; type: in vivo; details: squash cotyledons, initial 0.1%
Method: as §5
(§7) Test compounds were diluted in a 50--50 acetone-water solution. Approximately 1×1.5 inch sections of curly dock (Rumex crispus) leaves were immersed in the test solution for 2-3 seconds. After drying on a wire screen, the leaves were placed in petri dishes containing a moistened piece of filter paper. Each dish was infested with 5 secondinstar saltmarsh larvae.
(§8) Mortality of the larvae was recorded 48 hours later. A piece of synthetic media was added to the dishes containing surviving larvae. The larvae were then observed for 5 additional days for delayed effects of the test compounds. Test concentrations ranged from 0.05% down to that at which approximately 50% mortality occurs. Cabbage Looper [Trichoplusia ni (Hubner)], (CL)
The effectiveness of the compounds was tested in the same manner as for the saltmarsh caterpillar with two exceptions. Cotyledons of hyzini squash (Calabacita abobrinha, were substituted for curly dock leaves and the initial test concentration was 0.1%. Tobacco Budworm [Heliothis virescens (Fabricius)], (TBW)
as §4

[8] = test system: Lygus Bug [Lygus hesperus (Knight)]; assay: Lygus Bug (LB) direct spray assay, mortality 48 hours later; type: in vivo; details: adults, initial 0.05%
Method: as §5
(§9) Mobile insects, such as houseflies, German cockroaches, Lygus bugs, were contained for treatment in circular cardboard cages covered with cellophane on the bottom and tulle netting on the top.
(§10) Test compounds were diluted in a 50--50 acetonewater solution. Two cubic centimeters (cc) of the compound solutions were sprayed through a DeVilbiss type EGA hand spray gun into cages each containing 10 one-month-old German cockroach nymphs.
Lygus Bug [Lygus hesperus (Knight)], (LB)--Direct Spray Assay
(§11) The species was treated in the same manner as the German cockroach. The cages contained one string beam pod and 10 adult Lygus bugs. The percent mortality was recorded 48 hours later. Test concentrations ranged from 0.05% down to that at which approximately 50% mortality occurs. Saltmarsh Caterpillar [Estigmene acrea (Drury)], (SMC)--Leaf Dip Assay
as §4

[9] = test system: Saltmarsh Caterpillar [Estigmene acrea (Drury)]; assay: Saltmarsh Caterpillar (SMC) leaf dip assay; type: in vivo; details: curly dock leaves, second-instar larvae, 48 hours + 5 days
Method: as §5, §11, §7, §8, §4

[10] = test system: German Cockroach [Blatella germanica (Linne)]; assay: German Cockroach (GR) direct spray, mortality 7 days later; type: in vivo; details: one-month-old nymphs, initial 0.1%
Method: as §5, §9, §6, §10
The percent mortality was recorded 7 days later. Test concentrations ranged from 0.1% down to that at which approximately 50% mortality occurs.
as §4

Structure (SMILES) | LD50 BBA [1] | LD50 2SM Adults [2] | LD50 2SM Eggs [2] | LD50 TBW [3] | LC50 [4] [µg/mL] | LD50 HF [5] [μg/25] | LD50 GPA [6] | LD50 CL [7] | LD50 LB [8] | LD50 SMC [9] | LD50 GR [10]
COP(=S)(OC)SCC(=O)N1CCN(C(=O)SC(C)(C)C)CC1C (centres unmarked) [Compound 32, 1-N-carbo-t-butylthio-4-N'-O,O-dimethylphosphorodithioylacetyl-3-methyl piperazine] | > .05% | > .05% | > .05% | > .05% | > 1 | > 10 | – | – | – | – | –
CCOC(=O)N1CCN(C(=O)CSP(=S)(OCC)OCC)C(C)C1 (centres unmarked) [Compound 13, 1-N-ethoxycarbo-4-N'-O,O-diethylphosphorodithioylacetyl-3-methyl piperazine] | .003% | .003% | .006% | > .05% | > 1 | > 10 | .008% | > .1% | > .05% | > .05% | > .1%
CCOP(=S)(OCC)SCC(=O)N1CCN(C(=O)SC)CC1 [Compound 27, 1-N-methylthiocarbo-4-N-O,O-diethylphosphorodithioylacetyl piperazine] | .001% | < .05% | < .05% | > .1% | > 1 | > 10 | .01% | > .1% | > .05% | – | > .1%
CCOC(=O)N1CCN(C(=O)CSP(=O)(OCC)OCC)C(C)C1 (centres unmarked) [Compound 14, 1-N-carboethoxy-4-N'-O,O-diethylphosphoromonothioylacetyl-3-methyl piperazine] | .0005% | < .05% | < .05% | > .1% | > 1 | > 10 | .005% | > .1% | > .05% | – | > .1%
CCOP(=O)(OCC)SCC(=O)N1CCN(C(=O)SC)CC1 [Compound 28, 1-N-methylthiocarbo-4-N-O,O-diethylphosphoromonothioylacetyl piperazine] | .0002% | < .05% | < .05% | > .1% | > 1 | > 10 | .008% | > .1% | > .05% | > .05% | > .1%
CCOC(=O)N1CCN(C(=O)CSP(=S)(OC)OC)CC1 [Compound 10, 1-N-ethoxycarbo-4-N-O,O-dimethylphosphorodithioylacetyl piperazine] | .0002% | .002% | .005% | > .05% | 1 (≈ 2.81 µM) | > 10 | .002% | > .1% | > .05% | – | > .1%
CCOP(=O)(OCC)SCC(=O)N1CCN(C(=O)OC(C)C)CC1 [Compound 20, 1-N-isopropoxycarbo-4-N-O,O-diethylphosphoromonothioylacetyl piperazine] | .0005% | < .05% | < .05% | .1% | > 1 | > 10 | .008% | > .1% | > .05% | > .05% | > .1%
CCOC(=O)N1CCN(C(=O)CSP(=S)(OCC)OCC)CC1 [Compound 12, 1-N-ethoxycarbo-4-N-O,O-diethylphosphorodithioylacetyl piperazine] | .001% | .001% | .002% | > .1% | > 1 | > 10 | .008% | > .1% | > .05% | > .05% | > .1%
CCOP(=S)(OCC)SCC(=O)N1CCN(C(=O)SC(C)(C)C)CC1C (centres unmarked) [Compound 33, 1-N-carbo-t-butylthio-4-N'-O,O-diethylphosphorodithioylacetyl-3-methyl piperazine] | > .005% | – | – | > .05% | – | > 10 | – | – | – | – | –
CCOP(=S)(OCC)SCC(=O)N1CCN(C(=O)OC(C)C)CC1 [Compound 19, 1-N-isopropoxycarbo-4-N-O,O-diethylphosphorodithioylacetyl piperazine] | .0006% | < .05% | < .05% | > .1% | > 1 | > 10 | .006% | > .1% | > .05% | > .05% | > .1%
COP(=S)(OC)SCC(=O)N1CCN(C(=O)OC(C)C)CC1 [Compound 18, 1-N-ispropoxycarbo-4-N-O,O-dimethylphosphorodithioylacetyl piperazine] | .0005% | < .05% | < .05% | > .1% | 1 (≈ 2.7 µM) | > 10 | .005% | > .1% | > .05% | > .05% | > .1%
CCOP(=S)(OCC)SCC(=O)N1CCN(C(=O)OC)CC1 [Compound 3, 1-N-methoxycarbo-4-N-O,O-diethylphosphorodithioylacetyl piperazine] | .001% | < .05% | < .05% | > .1% | > 1 | > 10 | .01% | > .1% | > .05% | – | > .1%
CCOP(=S)(OCC)SCC(=O)N1CCN(C(=O)Oc2ccccc2)CC1 [Compound 23, 1-N-phenyloxycarbo-4-N-O,O-diethylphosphorodithioylacetyl piperazine] | .002% | < .05% | < .05% | > .1% | 1 (≈ 2.31 µM) | > 10 | .008% | .1% | > .05% | – | > .1%
